# Reference: ChEMBL document CHEMBL5338820, “Discovery and Design of Novel Cyclic Peptides as Specific Inhibitors Targeting CCN2 and Disrupting CCN2/EGFR Interaction for Kidney Fibrosis Treatment” (J Med Chem, 2023)
# Peptide text beside a SMILES is read from it.
# Key:
# CCN2-EGFR (Homo sapiens) [1] = molecular target: T1, CCN2-EGFR (Homo sapiens) (UniProt P00533+P29279); experiment: Inhibition of His-tagged full length human CCN2 CT domain/human Fc-tagged EGFR protein-protein interaction using TMB as chromogenic substrate at 100 uM incubated for 140 mins by microplate reader assay relative to control
# T1 sequence (P00533 whole entry, looked up, the tested form may be a part): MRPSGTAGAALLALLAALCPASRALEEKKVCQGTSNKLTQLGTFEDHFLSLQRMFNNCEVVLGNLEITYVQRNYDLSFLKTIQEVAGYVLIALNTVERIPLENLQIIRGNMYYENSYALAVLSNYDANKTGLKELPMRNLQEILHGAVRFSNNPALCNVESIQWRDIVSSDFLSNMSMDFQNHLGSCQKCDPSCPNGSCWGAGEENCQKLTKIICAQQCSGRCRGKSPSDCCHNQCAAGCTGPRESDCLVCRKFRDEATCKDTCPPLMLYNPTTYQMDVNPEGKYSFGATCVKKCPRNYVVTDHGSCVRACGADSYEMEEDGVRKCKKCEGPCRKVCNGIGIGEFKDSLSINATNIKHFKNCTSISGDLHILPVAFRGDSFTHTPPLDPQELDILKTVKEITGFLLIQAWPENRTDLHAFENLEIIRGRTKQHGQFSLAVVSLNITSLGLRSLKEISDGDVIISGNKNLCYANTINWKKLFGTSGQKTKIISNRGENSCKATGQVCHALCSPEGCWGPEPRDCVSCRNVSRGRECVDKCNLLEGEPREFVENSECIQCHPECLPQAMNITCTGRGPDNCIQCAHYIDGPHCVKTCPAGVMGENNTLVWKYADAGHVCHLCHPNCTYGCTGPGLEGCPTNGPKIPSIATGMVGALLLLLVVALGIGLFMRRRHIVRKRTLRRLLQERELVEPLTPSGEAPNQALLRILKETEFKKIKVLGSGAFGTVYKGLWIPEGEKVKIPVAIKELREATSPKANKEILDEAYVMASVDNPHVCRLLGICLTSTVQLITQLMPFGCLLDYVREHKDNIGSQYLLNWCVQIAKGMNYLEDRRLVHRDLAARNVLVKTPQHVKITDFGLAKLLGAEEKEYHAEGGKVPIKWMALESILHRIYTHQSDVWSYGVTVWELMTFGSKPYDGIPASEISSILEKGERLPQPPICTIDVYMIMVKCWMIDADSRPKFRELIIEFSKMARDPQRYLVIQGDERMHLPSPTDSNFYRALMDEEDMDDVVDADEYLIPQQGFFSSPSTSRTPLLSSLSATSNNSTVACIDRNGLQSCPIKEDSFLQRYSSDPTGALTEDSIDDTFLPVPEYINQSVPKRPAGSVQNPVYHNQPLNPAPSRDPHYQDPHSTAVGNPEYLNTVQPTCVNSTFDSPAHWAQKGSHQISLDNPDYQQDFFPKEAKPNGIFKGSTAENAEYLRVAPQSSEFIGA
# T1 sequence (P29279 whole entry, looked up, the tested form may be a part): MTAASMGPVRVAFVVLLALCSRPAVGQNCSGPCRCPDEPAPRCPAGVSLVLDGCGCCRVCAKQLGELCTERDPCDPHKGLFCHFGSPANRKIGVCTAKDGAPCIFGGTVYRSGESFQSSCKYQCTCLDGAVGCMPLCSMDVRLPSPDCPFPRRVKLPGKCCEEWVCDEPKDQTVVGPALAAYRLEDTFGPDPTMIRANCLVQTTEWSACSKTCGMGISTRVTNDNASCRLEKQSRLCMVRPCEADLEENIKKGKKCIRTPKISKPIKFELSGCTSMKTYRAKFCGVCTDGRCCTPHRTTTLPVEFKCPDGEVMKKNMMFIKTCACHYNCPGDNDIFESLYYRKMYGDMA
# CCN2-EGFR (Homo sapiens) [2] = molecular target: T1, CCN2-EGFR (Homo sapiens); experiment: Inhibition of His-tagged full length human CCN2 FL domain/human Fc-tagged EGFR protein-protein interaction using TMB as chromogenic substrate at 100 uM incubated for 140 mins by microplate reader assay relative to control
inhibition (CCN2-EGFR (Homo sapiens) [1]),inhibition (CCN2-EGFR (Homo sapiens) [2]),SMILES
70.8%,58.7%,CC(C)C[C@H](NC(=O)[C@H](C)N)C(=O)N[C@@H](C)C(=O)N[C@@H](CC(=O)O)C(=O)N[C@H](C(=O)N[C@H](C(=O)N[C@@H](Cc1c[nH]cn1)C(=O)N[C@@H](Cc1c[nH]cn1)C(=O)N[C@@H](CCCNC(=N)N)C(=O)N1CCC[C@H]1C(=O)N[C@@H](Cc1c[nH]c2ccccc12)C(=O)N[C@H](C(N)=O)[C@@H](C)O)[C@@H](C)O)[C@@H](C)O (H-ALADTTHHRPWT-NH2)
69.5%,62.8%,CC(C)C[C@H](N)C(=O)N[C@@H](C)C(=O)N[C@@H](C)C(=O)N[C@@H](CC(=O)O)C(=O)N[C@H](C(=O)N[C@H](C(=O)N[C@@H](Cc1c[nH]cn1)C(=O)N[C@@H](Cc1c[nH]cn1)C(=O)N[C@@H](CCCNC(=N)N)C(=O)N1CCC[C@H]1C(=O)N[C@@H](Cc1c[nH]c2ccccc12)C(=O)N[C@H](C(N)=O)[C@@H](C)O)[C@@H](C)O)[C@@H](C)O (H-LAADTTHHRPWT-NH2)
76%,61.4%,CC(C)C[C@H](NC(=O)[C@@H](N)CC(C)C)C(=O)N[C@@H](C)C(=O)N[C@@H](C)C(=O)N[C@H](C(=O)N[C@H](C(=O)N[C@@H](Cc1c[nH]cn1)C(=O)N[C@@H](Cc1c[nH]cn1)C(=O)N[C@@H](CCCNC(=N)N)C(=O)N1CCC[C@H]1C(=O)N[C@@H](Cc1c[nH]c2ccccc12)C(=O)N[C@H](C(N)=O)[C@@H](C)O)[C@@H](C)O)[C@@H](C)O (H-LLAATTHHRPWT-NH2)
70.7%,59%,CC(C)C[C@H](NC(=O)[C@@H](N)CC(C)C)C(=O)N[C@@H](C)C(=O)N[C@@H](CC(=O)O)C(=O)N[C@@H](C)C(=O)N[C@H](C(=O)N[C@@H](Cc1c[nH]cn1)C(=O)N[C@@H](Cc1c[nH]cn1)C(=O)N[C@@H](CCCNC(=N)N)C(=O)N1CCC[C@H]1C(=O)N[C@@H](Cc1c[nH]c2ccccc12)C(=O)N[C@H](C(N)=O)[C@@H](C)O)[C@@H](C)O (H-LLADATHHRPWT-NH2)
44.1%,36.5%,CC(C)C[C@H](NC(=O)[C@@H](N)CC(C)C)C(=O)N[C@@H](C)C(=O)N[C@@H](CC(=O)O)C(=O)N[C@H](C(=O)N[C@@H](C)C(=O)N[C@@H](Cc1c[nH]cn1)C(=O)N[C@@H](Cc1c[nH]cn1)C(=O)N[C@@H](CCCNC(=N)N)C(=O)N1CCC[C@H]1C(=O)N[C@@H](Cc1c[nH]c2ccccc12)C(=O)N[C@H](C(N)=O)[C@@H](C)O)[C@@H](C)O (H-LLADTAHHRPWT-NH2)
70.5%,59.6%,CC(C)C[C@H](NC(=O)[C@@H](N)CC(C)C)C(=O)N[C@@H](C)C(=O)N[C@@H](CC(=O)O)C(=O)N[C@H](C(=O)N[C@H](C(=O)N[C@@H](C)C(=O)N[C@@H](Cc1c[nH]cn1)C(=O)N[C@@H](CCCNC(=N)N)C(=O)N1CCC[C@H]1C(=O)N[C@@H](Cc1c[nH]c2ccccc12)C(=O)N[C@H](C(N)=O)[C@@H](C)O)[C@@H](C)O)[C@@H](C)O (H-LLADTTAHRPWT-NH2)
65.8%,48.6%,CC(C)C[C@H](NC(=O)[C@@H](N)CC(C)C)C(=O)N[C@@H](C)C(=O)N[C@@H](CC(=O)O)C(=O)N[C@H](C(=O)N[C@H](C(=O)N[C@@H](Cc1c[nH]cn1)C(=O)N[C@@H](C)C(=O)N[C@@H](CCCNC(=N)N)C(=O)N1CCC[C@H]1C(=O)N[C@@H](Cc1c[nH]c2ccccc12)C(=O)N[C@H](C(N)=O)[C@@H](C)O)[C@@H](C)O)[C@@H](C)O (H-LLADTTHARPWT-NH2)
72.5%,57.8%,CC(C)C[C@H](NC(=O)[C@@H](N)CC(C)C)C(=O)N[C@@H](C)C(=O)N[C@@H](CC(=O)O)C(=O)N[C@H](C(=O)N[C@H](C(=O)N[C@@H](Cc1c[nH]cn1)C(=O)N[C@@H](Cc1c[nH]cn1)C(=O)N[C@@H](C)C(=O)N1CCC[C@H]1C(=O)N[C@@H](Cc1c[nH]c2ccccc12)C(=O)N[C@H](C(N)=O)[C@@H](C)O)[C@@H](C)O)[C@@H](C)O (H-LLADTTHHAPWT-NH2)
